Patent US10202342B2, “Targeted delivery of imaging probes for in vivo cellular imaging” (University of Maryland, Baltimore, priority 2008, dated 2019)

Test system: cells
Experiment: Intracellular retention of nitroxides (FIG. 7)
Type: cell-based
Excerpt: The exponential life time (τ) is related to the half-life (t½): t½=0.693τ.
It is evident that nitroxide has a significant increase in retention time and approximately a 4-fold improvement over nitroxide and a 12 fold increase over nitroxide.

## CC1(C)CC(CN(CC(=O)O)CC(=O)O)C(C)(C)N1[O] (stereo not drawn) [nitroxide [3], (2,2,5,5-tetramethylpyrrolidin-1-oxyl-3-ylmethyl)amine-N,N-diacetic acid]
FIG. 7, nitroxides [1]-[3] compared
  intracellular retention life time (single-exponential fits), comparison in words: longest life time within the cells
FIG. 7, retention within cells
  intracellular retention time, improvement over nitroxide [2]: ~4 fold
  intracellular retention time, increase over nitroxide [1]: ~12 fold
